Measurements from ChEMBL document CHEMBL4715844, “Structure-based virtual screening and biological evaluation of novel non-bisphosphonate farnesyl pyrophosphate synthase inhibitors” (Eur J Med Chem, 2020).

Tests used:
[1] = biological target: T1, Farnesyl pyrophosphate synthase (Rattus norvegicus) (UniProt P05369); test: Inhibition of rat FPPS expressed in Escherichia coli BL21 (DE3) using GPP and IPP as substrate at 10 uM incubated for 10 mins by microplate reader
T1 sequence (whole entry): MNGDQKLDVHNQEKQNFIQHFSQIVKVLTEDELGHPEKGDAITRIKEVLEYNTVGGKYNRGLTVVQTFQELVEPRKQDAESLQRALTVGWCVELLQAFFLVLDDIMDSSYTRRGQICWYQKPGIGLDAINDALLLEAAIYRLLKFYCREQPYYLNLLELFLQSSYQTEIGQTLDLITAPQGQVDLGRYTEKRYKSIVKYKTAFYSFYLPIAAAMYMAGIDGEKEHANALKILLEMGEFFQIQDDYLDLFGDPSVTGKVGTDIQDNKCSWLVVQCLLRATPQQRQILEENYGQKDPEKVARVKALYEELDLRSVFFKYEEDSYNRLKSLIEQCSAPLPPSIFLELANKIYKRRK

[2] = biological target: T2, Farnesyl pyrophosphate synthase (Rattus norvegicus, UniProt P05369); test: Binding affinity to rat FPPS expressed in Escherichia coli BL21 (DE3) by isothermal titration calorimetry
T2 sequence (P05369 whole entry): T1 sequence (whole entry)

inhibition [1]: 29.3%
Kd [2]: 328 µM
Structure (SMILES): O=Cc1ccc(O[C@@H]2O[C@H](CO)[C@@H](O)[C@H](O)[C@H]2O)cc1
